According to ChEMBL document CHEMBL1153384, “Synthesis, antimalarial activity, and preclinical pharmacology of a novel series of 4'-fluoro and 4'-chloro analogues of amodiaquine. Identification of a suitable "back-up" compound for N-tert-butyl isoquine” (J Med Chem, 2009):

Key:
[1] = tested on: Plasmodium falciparum; assay: Antimalarial activity against […] Plasmodium falciparum PH3; assay type: functional, organism-based
[2] = tested on: Kidney; assay: Biodistribution in Wistar rat kidney assessed as [3H]labeled drug level at 54 umol/kg, iv after 24 hrs; assay type: ADME, organism-based; conditions: in vivo
[3] = tested on: Plasmodium falciparum; assay: Antimalarial activity against chloroquine-resistant Plasmodium falciparum V1/S; assay type: functional, organism-based; conditions: V1S
[4] = tested on: Rattus norvegicus; assay: Metabolic stability in Wistar rat assessed as (2S,3S,4S,5R,6S)-6-{2-[5-(7-Chloro-quinolin-4-ylamino)-2-fluoro-benzylamino]-2-methyl-propionyloxy}-3,4,5-trihydroxy-tetrahydro-pyran-2-carboxylic acid level at 54 umol/kg, iv administered as [3H]labeled drug after 5 hrs; assay type: ADME, organism-based; conditions: in vivo
[5] = (§1) Partition coefficient, log P of the compound; assay type: physicochemical; conditions: octanol/water
[6] = tested on: Mus musculus; assay: Toxicity in po dosed mouse assessed as induction of hematological toxicity at drug dose above no observed adverse effects level; assay type: organism-based; conditions: in vivo
[7] = Drug metabolism in cannulated Wistar rat assessed as biliary excretion of [3H]labeled drug level at 54 umol/kg, iv after 5 hrs; assay type: ADME, organism-based, Bile; conditions: in vivo
[8] = tested on: Plasmodium falciparum; assay: Antimalarial activity against chloroquine-resistant Plasmodium falciparum TM6; assay type: functional, organism-based
[9] = target: Cytochrome P450 2C19 (Homo sapiens, UniProt P33261); assay: Inhibition of human CYP2C19; assay type: ADME
Cytochrome P450 2C19, sequence (P33261 whole entry): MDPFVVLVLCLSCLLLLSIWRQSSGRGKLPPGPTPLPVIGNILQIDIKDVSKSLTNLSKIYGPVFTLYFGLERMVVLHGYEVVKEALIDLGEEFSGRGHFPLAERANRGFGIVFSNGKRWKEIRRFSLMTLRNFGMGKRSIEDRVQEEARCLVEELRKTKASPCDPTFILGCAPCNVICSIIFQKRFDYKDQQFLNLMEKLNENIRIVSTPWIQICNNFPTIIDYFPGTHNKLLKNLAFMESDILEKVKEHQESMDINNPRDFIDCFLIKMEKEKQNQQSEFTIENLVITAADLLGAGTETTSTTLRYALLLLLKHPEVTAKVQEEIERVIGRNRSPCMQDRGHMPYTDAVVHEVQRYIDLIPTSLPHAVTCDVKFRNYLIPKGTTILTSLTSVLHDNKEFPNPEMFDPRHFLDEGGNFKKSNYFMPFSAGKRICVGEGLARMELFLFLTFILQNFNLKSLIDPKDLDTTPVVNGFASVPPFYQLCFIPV

[10] = as §1; assay type: physicochemical; conditions: octanol/water; remark: listed apart in the source
[11] = Clearance in iv dosed mouse; assay type: ADME, organism-based; conditions: in vivo
[12] = tested on: Rattus norvegicus; assay: Biodistribution in Wistar rat assessed as remaining [3H]labeled drug level at 54 umol/kg, iv after 5 hrs; assay type: ADME, organism-based; conditions: in vivo
[13] = Toxicity against Wistar rat hepatocytes after 6 hrs by trypan blue exclusion method; assay type: cell-based, Hepatocyte; conditions: read-out: TC50
[14] = Distribution coefficient, log D at pH 7.4; conditions: octanol/water
[15] = target: T1, Cytochrome P450 2C8 (Homo sapiens, UniProt P10632); assay: Inhibition of human CYP2C8; assay type: ADME
T1 sequence (P10632 whole entry): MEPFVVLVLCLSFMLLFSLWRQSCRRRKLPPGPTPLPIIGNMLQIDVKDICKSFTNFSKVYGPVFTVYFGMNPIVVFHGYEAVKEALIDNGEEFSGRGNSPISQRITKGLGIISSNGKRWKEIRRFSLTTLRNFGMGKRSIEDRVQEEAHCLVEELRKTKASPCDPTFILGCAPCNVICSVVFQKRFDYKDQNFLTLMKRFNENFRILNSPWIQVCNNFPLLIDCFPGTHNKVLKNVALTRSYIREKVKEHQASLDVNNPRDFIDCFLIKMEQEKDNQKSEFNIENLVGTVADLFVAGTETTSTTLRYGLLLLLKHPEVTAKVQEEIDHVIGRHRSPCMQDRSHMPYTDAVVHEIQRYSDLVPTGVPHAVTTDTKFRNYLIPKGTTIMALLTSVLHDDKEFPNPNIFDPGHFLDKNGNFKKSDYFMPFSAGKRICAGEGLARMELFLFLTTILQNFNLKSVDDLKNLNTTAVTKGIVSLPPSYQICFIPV

[16] = tested on: Mus musculus; assay: Toxicity in po dosed mouse assessed as maximal nonlethal dose administered as single dose; assay type: organism-based; conditions: in vivo
[17] = target: T2, Cytochrome P450 3A4 (Homo sapiens, UniProt P08684); assay: Inhibition of human CYP3A4 using DEF substrate
T2 sequence (P08684 whole entry): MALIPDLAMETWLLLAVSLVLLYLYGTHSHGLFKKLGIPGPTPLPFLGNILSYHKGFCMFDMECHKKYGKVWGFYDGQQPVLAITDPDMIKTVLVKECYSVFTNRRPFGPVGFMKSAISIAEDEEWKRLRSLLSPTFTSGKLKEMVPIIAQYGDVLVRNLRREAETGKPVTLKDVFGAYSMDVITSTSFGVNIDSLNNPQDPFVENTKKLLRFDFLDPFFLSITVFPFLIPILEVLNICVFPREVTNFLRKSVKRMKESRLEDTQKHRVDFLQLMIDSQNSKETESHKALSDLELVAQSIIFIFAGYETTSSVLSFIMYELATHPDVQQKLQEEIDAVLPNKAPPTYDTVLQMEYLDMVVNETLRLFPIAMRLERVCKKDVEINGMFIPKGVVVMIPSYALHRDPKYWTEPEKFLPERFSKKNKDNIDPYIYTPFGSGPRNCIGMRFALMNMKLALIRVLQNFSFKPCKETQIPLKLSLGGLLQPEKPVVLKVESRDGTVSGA

[18] = tested on: Rattus norvegicus; assay: Metabolic stability in Wistar rat assessed as 2-[5-(7-Chloro-quinolin-4-ylamino)-2-fluoro-benzylamino]-2-methyl-propionic acids level at 54 umol/kg, iv administered as [3H]labeled drug after 5 hrs; assay type: ADME, organism-based; conditions: in vivo
[19] = tested on: Rattus norvegicus; assay: Metabolic stability in Wistar rat assessed as [3-(tert-Butylamino-methyl)-4-fluoro-phenyl]-(7-chloro-1-oxy-quinolin-4-yl)-amine level at 54 umol/kg, iv administered as [3H]labeled drug after 5 hrs; assay type: ADME, organism-based; conditions: in vivo
[20] = tested on: Plasmodium yoelii; assay: Antimalarial activity as reduced parasitaemia against Plasmodium yoelii 17X infected CD1 mice (Mus musculus) perorally dosed daily for 4 days; assay type: functional; conditions: po, 96 h
[21] = Oral bioavailability in mouse; assay type: ADME, organism-based; conditions: in vivo
[22] = tested on: Plasmodium falciparum; assay: Antimalarial activity against chloroquine-resistant Plasmodium falciparum TM4; assay type: functional, organism-based
[23] = tested on: Rattus norvegicus; assay: Biodistribution in Wistar rat assessed as remaining [3H]labeled drug level at 54 umol/kg, iv after 168 hrs; assay type: ADME, organism-based; conditions: in vivo
[24] = tested on: Plasmodium falciparum; assay: Antimalarial activity against chloroquine-sensitive Plasmodium falciparum 3D7; assay type: functional, organism-based
[25] = tested on: Kidney; assay: Biodistribution in cannulated Wistar rat kidney assessed as [3H]labeled drug level at 54 umol/kg, iv after 5 hrs; assay type: ADME, organism-based; conditions: in vivo
[26] = tested on: Plasmodium falciparum; assay: Antimalarial activity against […] Plasmodium falciparum Dd2; assay type: functional, organism-based
[27] = tested on: Plasmodium yoelii; assay: Antimalarial activity as minimal concentration for parasite elimination at day 23 against Plasmodium yoelii 17X intravenously inoculated CD1 mice (Mus musculus) dosed 1 hrs post infection then daily for 4 days
[28] = Drug metabolism in cannulated Wistar rat assessed as urinary excretion of [3H]labeled drug level at 54 umol/kg, iv after 5 hrs; assay type: ADME, organism-based, Urine; conditions: in vivo
[29] = target: T2, Cytochrome P450 3A4; assay: Inhibition of human CYP3A4 using PPR substrate; assay type: ADME
[30] = tested on: Mus musculus; assay: Toxicity in po dosed mouse assessed as induction of hepatotoxicity at drug dose above no observed adverse effects level; assay type: organism-based; conditions: in vivo
[31] = tested on: Rattus norvegicus; assay: Biodistribution in Wistar rat assessed as remaining [3H]labeled drug level at 54 umol/kg, iv after 24 hrs; assay type: ADME, organism-based; conditions: in vivo
[32] = tested on: Plasmodium falciparum; assay: Antimalarial activity against chloroquine-resistant Plasmodium falciparum J164; assay type: functional, organism-based
[33] = Toxicity in po dosed mouse assessed as drug level causing no observed adverse effects administered as once daily for 4 days; assay type: organism-based; conditions: in vivo, read-out: Activity
[34] = Clearance in iv dosed rat; assay type: ADME, organism-based; conditions: in vivo
[35] = target: T3, Cytochrome P450 1A2 (Homo sapiens, UniProt P05177); assay: Inhibition of human CYP1A2; assay type: ADME
T3 sequence (P05177 whole entry): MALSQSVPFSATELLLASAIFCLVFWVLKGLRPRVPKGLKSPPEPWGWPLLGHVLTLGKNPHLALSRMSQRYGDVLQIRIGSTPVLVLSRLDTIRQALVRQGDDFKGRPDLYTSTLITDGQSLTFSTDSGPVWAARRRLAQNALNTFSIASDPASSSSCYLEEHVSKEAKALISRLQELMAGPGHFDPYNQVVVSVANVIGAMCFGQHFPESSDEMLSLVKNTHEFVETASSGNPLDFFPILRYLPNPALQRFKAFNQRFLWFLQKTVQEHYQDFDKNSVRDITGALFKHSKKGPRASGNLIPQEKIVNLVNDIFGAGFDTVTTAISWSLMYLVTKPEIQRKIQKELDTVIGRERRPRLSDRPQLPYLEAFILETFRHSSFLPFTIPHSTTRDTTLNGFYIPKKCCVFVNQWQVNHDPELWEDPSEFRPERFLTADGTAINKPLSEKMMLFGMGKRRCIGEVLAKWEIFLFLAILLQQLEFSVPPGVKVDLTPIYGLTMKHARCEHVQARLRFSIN

[36] = tested on: Zone of skin; assay: Biodistribution in cannulated Wistar rat skin assessed as [3H]labeled drug level at 54 umol/kg, iv after 5 hrs; assay type: ADME, organism-based; conditions: in vivo
[37] = tested on: Heme; assay: Binding affinity to heme assessed as binding constant for stepwise binding of 2 molecules of heme to 1 equivalent of drug in presence of 40% DMSO by UV-visible spectroscopy

CC(C)(C)NCc1cc(Nc2ccnc3cc(Cl)ccc23)ccc1F
IC50 [1]: 25.8 nM
Drug uptake [2]: 1.48 %ID
IC50 [3]: 26.1 nM
Activity [4]: 9.95%
logP [5]: 4.74
Activity [6]: Toxic
Activity [7]: 9.16%
IC50 [8]: 21.9 nM
IC50 [9]: 64000 nM
logP [10]: 5.15
clearance [11]: 40.4 mL/min/kg
Activity [12]: 38.54%
CC50 at 6 h [13]: 385000 nM
logD [14]: 2.4
IC50 [15]: 9800 nM
Activity [16]: 610 mg/kg
IC50 [17]: > 100000 nM
Activity [18]: 14.22%
Activity [19]: 3.55%
ED50 [20]: 7.7 mg/kg
ED90 [20]: 10.6 mg/kg
bioavailability [21]: 37%
IC50 [22]: 17.3 nM
Activity [23]: 1.22%
IC50 [24]: 12.1 nM
Drug uptake [25]: 3.97 %ID
IC50 [26]: 22.4 nM
Activity [27]: >40 mg/kg
Activity [28]: 8.06%
IC50 [29]: Active
Activity [30]: Toxic
Activity [31]: 14.76%
IC50 [32]: 29.2 nM
NOAEL at 96 h [33]: 100 mg/kg
clearance [34]: 35 mL/min/kg
IC50 [35]: 8800 nM
Drug uptake [36]: 12.44 %ID
log Ks [37]: 5.68
